Toxic doses and inconclusive results are not listed.
Test system: BDF1 mice, P388 leukemia ip, median survival T/C
Experiment: NCI In Vivo Anticancer Drug Screen. Data for tumor model P388 Leukemia (intraperitoneal) in B6D2F1 (BDF1) mice
Details: endpoint: median survival time, higher = longer survival
Summary of the method: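 Reported as T/C, where T is the survival measurement in dosed animals and C the same measurement in vehicle controls.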

[1] = dose: 100.0 mg/kg/injection, schedule: Q04DX003 (ip), vehicle: Klucel (hydroxypropylcellulose) (HPC)
[2] = dose: 100.0 mg/kg/injection, schedule: Q01DX001 (ip), vehicle: Klucel (hydroxypropylcellulose) (HPC)
[3] = dose: 200.0 mg/kg/injection, schedule: Q01DX001 (ip), vehicle: Klucel (hydroxypropylcellulose) (HPC)
[4] = dose: 400.0 mg/kg/injection, schedule: Q01DX001 (ip), vehicle: Klucel (hydroxypropylcellulose) (HPC)

SMILES: CCOC(=O)N(C)c1ccccc1
- T/C (dose: 25.0 mg/kg/injection, schedule: Q01DX009 (ip), vehicle: Klucel (hydroxypropylcellulose) (HPC)): 95 % of control
- T/C (dose: 25.0 mg/kg/injection, schedule: Q04DX003 (ip), vehicle: Klucel (hydroxypropylcellulose) (HPC)): 92 % of control
- T/C (dose: 50.0 mg/kg/injection, schedule: Q01DX009 (ip), vehicle: Klucel (hydroxypropylcellulose) (HPC)): 91 % of control
- T/C (dose: 50.0 mg/kg/injection, schedule: Q04DX003 (ip), vehicle: Klucel (hydroxypropylcellulose) (HPC)): 96 % of control
- T/C (dose: 100.0 mg/kg/injection, schedule: Q01DX009 (ip), vehicle: Klucel (hydroxypropylcellulose) (HPC)): 87 % of control
- T/C [1]: 92 % of control

SMILES: CCOC(=O)CC(COC)C(C(=O)OCC)C(=O)OCC (stereo not drawn)
- T/C (dose: 25.0 mg/kg/injection, schedule: Q01DX009 (ip), vehicle: other): 95 % of control
- T/C (dose: 50.0 mg/kg/injection, schedule: Q01DX009 (ip), vehicle: other): 121 % of control
- T/C (dose: 50.0 mg/kg/injection, schedule: Q04DX003 (ip), vehicle: other): 122 % of control
- T/C (dose: 100.0 mg/kg/injection, schedule: Q01DX009 (ip), vehicle: other): 92 % of control
- T/C (dose: 100.0 mg/kg/injection, schedule: Q04DX003 (ip), vehicle: other): 122 % of control
- T/C (dose: 200.0 mg/kg/injection, schedule: Q01DX009 (ip), vehicle: other): 100 % of control
- T/C (dose: 200.0 mg/kg/injection, schedule: Q04DX003 (ip), vehicle: other): 122 % of control
- T/C (dose: 400.0 mg/kg/injection, schedule: Q04DX003 (ip), vehicle: other): 100 % of control

SMILES: CC#CC#C/C=C1\OC2(CCCCO2)C(OC(C)=O)C1OC(C)=O (stereo not drawn)
- T/C (dose: 10.0 mg/kg/injection, schedule: Q01DX009 (ip), vehicle: Klucel (hydroxypropylcellulose) (HPC)): 98 % of control
- T/C (dose: 20.0 mg/kg/injection, schedule: Q01DX009 (ip), vehicle: Klucel (hydroxypropylcellulose) (HPC)): 98 % of control
- T/C (dose: 40.0 mg/kg/injection, schedule: Q01DX009 (ip), vehicle: Klucel (hydroxypropylcellulose) (HPC)): 115 % of control

SMILES: CCCCCCCCCCCCOc1ccc(C=O)cc1OC
- T/C [2]: 100 % of control
- T/C [3]: 90 % of control
- T/C [4]: 100 % of control

SMILES: CCN(CC)c1ccc(/C=C/c2ccncc2)cc1
- T/C [1]: 100 % of control
- T/C (dose: 200.0 mg/kg/injection, schedule: Q04DX003 (ip), vehicle: Klucel (hydroxypropylcellulose) (HPC)): 100 % of control
- T/C (dose: 400.0 mg/kg/injection, schedule: Q04DX003 (ip), vehicle: Klucel (hydroxypropylcellulose) (HPC)): 109 % of control

SMILES: O=C1SC2(CCCCC2)SC1=O
- T/C (dose: 25.0 mg/kg/injection, schedule: Q01DX009 (ip), vehicle: saline with Tween-80): 95 % of control
- T/C (dose: 50.0 mg/kg/injection, schedule: Q01DX009 (ip), vehicle: saline with Tween-80): 95 % of control
- T/C (dose: 100.0 mg/kg/injection, schedule: Q01DX009 (ip), vehicle: saline with Tween-80): 104 % of control

SMILES: CCOC(=O)C(=CN1CCOCC1)C(=O)OCC
- T/C (dose: 100.0 mg/kg/injection, schedule: Q04DX003 (ip), vehicle: saline with Tween-80): 100 % of control
- T/C (dose: 200.0 mg/kg/injection, schedule: Q04DX003 (ip), vehicle: saline with Tween-80): 100 % of control
- T/C (dose: 400.0 mg/kg/injection, schedule: Q04DX003 (ip), vehicle: saline with Tween-80): 109 % of control

SMILES: COC(=O)C[C@](O)(CCC(C)C)C(=O)O[C@@H]1C(OC)=C[C@]23CCCN2CCc2cc4c(cc2[C@H]13)OCO4
- T/C (dose: 0.06 mg/kg/injection, schedule: Q01DX010 (ip), vehicle: saline): 118 % of control
- T/C (dose: 0.13 mg/kg/injection, schedule: Q01DX010 (ip), vehicle: saline): 109 % of control
- T/C (dose: 0.25 mg/kg/injection, schedule: Q01DX010 (ip), vehicle: saline): 118 % of control
- T/C (dose: 1.0 mg/kg/injection, schedule: Q01DX010 (ip), vehicle: saline): 155 % of control
- T/C (dose: 2.0 mg/kg/injection, schedule: Q01DX010 (ip), vehicle: saline): 180 % of control

SMILES: CC(=O)C(=O)C(C)=O
- T/C [2]: 105 % of control
- T/C [3]: 100 % of control
- T/C [4]: 105 % of control

SMILES: O=C(N=c1cc(-c2ccc(Cl)cc2)ss1)C(Cc1ccccc1)N1C(=O)c2ccccc2C1=O (stereo not drawn)
- T/C (dose: 6.25 mg/kg/injection, schedule: Q01DX009 (ip), vehicle: water): 101 % of control
- T/C (dose: 6.25 mg/kg/injection, schedule: Q04DX003 (ip), vehicle: water): 110 % of control
- T/C (dose: 12.5 mg/kg/injection, schedule: Q01DX009 (ip), vehicle: water): 104 % of control
- T/C (dose: 12.5 mg/kg/injection, schedule: Q04DX003 (ip), vehicle: water): 100 % of control
- T/C (dose: 25.0 mg/kg/injection, schedule: Q01DX009 (ip), vehicle: water): 108 % of control
- T/C (dose: 25.0 mg/kg/injection, schedule: Q04DX003 (ip), vehicle: water): 110 % of control
- T/C (dose: 50.0 mg/kg/injection, schedule: Q01DX009 (ip), vehicle: water): 104 % of control
- T/C (dose: 50.0 mg/kg/injection, schedule: Q04DX003 (ip), vehicle: water): 104 % of control
- T/C (dose: 100.0 mg/kg/injection, schedule: Q01DX009 (ip), vehicle: water): 108 % of control
- T/C (dose: 100.0 mg/kg/injection, schedule: Q04DX003 (ip), vehicle: water): 107 % of control
- T/C (dose: 200.0 mg/kg/injection, schedule: Q01DX009 (ip), vehicle: water): 108 % of control

From PubChem BioAssay AID328 (DTP/NCI, 2004)
